Measured values from US9375424B2, “Compounds that treat malaria and prevent malaria transmission” (The United States of America, as represented by the …, priority 2009, dated 2016).
Structures can show the parent of a compound that is named as a salt. Where two headings read alike, the source gives them in different places.

Tests used:
P. falciparum lines = assay: qHTS SYBR Green Plasmodium proliferation assay in infected erythrocytes (seven parasite lines); assay type: cell-based; settings: Erythrocyte, read-out: IC50, inhibition of proliferation in all parasite lines
Protocol: The P. falciparum lines used in this study have been described previously (Mu J, et al. Multiple transporters associated with malaria parasite responses to chloroquine and quinine. Mol Microbiol 2003;49:977-989). […] Briefly, 3 μl culture medium was dispensed into 1536-well black clear-bottom plates (Aurora Biotechnologies) using a Multidrop Combi (Thermo Fisher Scientific Inc.); 23-nL compounds in DMSO were added by a pin tool (Kalypsys), and 5 μl of P. falciparum-infected RBCs (0.3% parasitemia, 2.5% hematocrit final concentration) were added. The plates were incubated at 37° C. in a humidified incubator in 5% CO2 for 72 h, and 2 μl lysis buffer (20 mM Tris-HCl, 10 mM EDTA, 0.16% saponin, 1.6% triton-X, 10× SYBR Green I supplied as 10,000× final concentration by Invitrogen) was added to each well. The plates were mixed for 25 sec with gentle shaking and incubated overnight at room temperature in the dark. The following morning, fluorescence intensity at 485 (14) nm excitation and 535 (25) nm emission wavelengths was measured on an En Vision (Perkin Elmer) plate reader. […] The plates were incubated at 37° C. under 5% CO2, 5% 02, and 90% N2 for 72 h, incubated for another 30 min after addition of 50 μl lysis buffer, and read in a FLUOstar OPTIMA reader (BMG Labtech). Data were analyzed using software at the NIAID Bioinformatic Resources (niaid-biocluster.niaid.nih.gov/cgi-bin/bipod2/index.cgi). Parasite proliferation was measured after 72 hr of incubation (corresponding to 1.5 generations of intra-erythrocytic parasite growth), with each compound tested at seven or eight five-fold dilutions beginning at 29 μM. […] The potencies of known antimalarial agents had similar values determined by the assay in 96-well plate format. […] Although the determined potencies of 4 were lower, the relative potency between lines sensitive to 4, HB3, 3D7, and D10 were clearly distinguished from resistant lines. […] The potencies of compounds scored as active or inconclusive in both replicates correlated well indicating good repeatability in determining IC50 values between replicates.

[1] = system: P. falciparum gametocytes; assay: killing of P. falciparum gametocytes in vitro; assay type: cell-based, Plasmodium falciparum
[2] = system: Plasmodium yoelii nigeriensis; assay type: in vivo; settings: for oocyst formation: mosquito feeding 1 hr after treatment (FIG. 1A), untreated control average 460 oocysts per mosquito
Protocol: Mice infected with Plasmodium yoelii nigeriensis were treated with drugs in different concentrations for various time periods and were exposed to mosquitoes. Oocysts were counted from dissected midgut 9-10 days after feeding. FIG. 1A, the number of oocysts from mosquitoes fed on mice treated with different TAA compounds for 1 hour. CAR, carbita Pentane (100 mg/kg); CHL, chlorpromazine (30 mg/kg); DEQ, dequalinium dichloride (10 mg/kg); Dox, doxipin hydrochloride (30 mg/kg); Ima, Imipramine (100 mg/kg), KET, ketotifen (100 mg/kg); Pro, protryptiline hydrochloride (10 mg/kg). FIG. 1B, the number of oocysts from mosquitoes fed on mice treated with different concentrations of ketotifen (KET) for 1 hour, compared with those treated with standard anti-malarial drugs, primaquine (PQ, 5 and 10 mg/kg), arteminisinin (ART, 5 mg/kg) and chloroquine (CQ, 10 mg/kg). FIG. 1C, the number of oocysts from mosquitoes fed on mice treated with a single dose of 0.5 mg/kg or 0.1 mg/kg of ketotifen (KET) for 1, 6 or 24 hours. FIG. 1D, the number of oocysts from mosquitoes fed on mice treated with two doses of 0.5 mg/kg or 0.1 mg/kg (filled symbol) of ketotifen (KET) for 1, 6 or 24 hours. CON, no drug control.
For testing transmission-blocking activity in vivo, CD-1 strain female mice, aged 6-8 weeks old, were infected intra-peritoneally (i.p.) with 5×106 P. yoelii nigeriensis. In a preliminary experiment, on day 3 post infection the animals were administrated i.p. a single dose of tricyclic antihistamine and antidepressants (TAA) compound or pharmaceutical-grade phosphate buffer saline (pH 7.4). Starting 1 hr after the administration of the TAA compound, the animals were anesthetized and brought into contact with a colony of Anopheles stephensimosquitoes. The mosquitoes were allowed to feed on the mice. Unfed or partially engorged mosquitoes were removed from the cages. The mosquitoes were maintained for 9-10 days 24 ±1° C. and 80-90% relative humidity. The gametocytocidal activity of the test compound was accessed on the basis of the oocyst counts in mosquitoes fed on treated animals and a control group. In subsequent experiments, the gametocytocidal action of ketotifin at different concentrations and doses was evaluated similarly. One group was given a single dose of 0.1, 0.5, 1, 5, 10, 30 or 60 mg/kg on day 3 post infection and subjected to mosquito feeding 1 hr after compound administration. Primaquine, chloroquine and arteminsin were used as reference drugs. The other group was given one dose or two doses of 0.1 or 0.5 mg/kg at 4 hr interval and subjected to mosquito feeding 1, 6 or 24 hrs after the final drug administration.

[3] = all seven parasite lines, 72 h incubation
[4] = 5 mg/kg single dose, treatment for 1 hr
[5] = two doses of 0.5 mg/kg at 4 hours interval, 24-hour treatment

In the case of `Cc1cc(N)c2ccccc2[n+]1CCCCCCCCCC[n+]1c(C)cc(N)c2ccccc21` [dequalinium dichloride], the IC50 (P. falciparum lines; [3]) is reported as < 2 µM.
With `CN1CCC(=C2c3ccccc3CC(=O)c3sccc32)CC1` [ketotifen] the “concentration that completely kills P. falciparum gametocytes in vitro” value [1] was 0.5 µM, the “average number of oocysts per mosquito” value ([2]; 1 mg/kg single dose, treatment for 1 hr (FIG. 1B)) was 34 oocysts per mosquito and the “mosquitoes that had oocysts” value [2, 4] was 2 of 44. For the same compound, the oocyst counts [2, 4] was 0.13 oocysts per mosquito, the oocyst development ([2]; 5 mg/kg single dose, treatment for 1 hr (FIG. 1B)) was “almost completely blocked oocyst development” and the oocyst formation ([2]; 100 mg/kg single dose i.p.) was “strong reduction in oocyst formation”. For the same compound, the “dose achieving similar reduction in oocyst count to primaquine, as share of the primaquine dose” value ([2]; relative to primaquine dose) was 10%, the oocyst counts ([2]; single dose 0.1 mg/kg, 24 hours prior to mosquito feeding (FIG. 1C)) was 82 oocysts per mosquito and the oocyst counts ([2]; single dose 0.5 mg/kg, 24 hours prior to mosquito feeding (FIG. 1C)) was 12 oocysts per mosquito. For the same compound, the oocyst counts ([2]; two doses of 0.1 mg/kg at 4 hours interval, 24-hour treatment time (FIG. 1D)) was 80 oocysts per mosquito, the “mosquitoes that had oocysts” value [2, 5] was 4 of 23 and the “oocysts in the mosquitoes” value [2, 5] was “almost completely eliminated oocysts”. The oocyst counts ([2]; two doses of 0.5 mg/kg at 4 hours interval, 24-hour treatment (FIG. 1D)) was 2 oocysts per mosquito.
In the case of `COc1cc(NC(C)CCCN)c2ncccc2c1` (stereo not shown) [primaquine], the “mosquitoes that had oocysts” value [2, 4] is reported as 7 of 21 and the oocyst counts [2, 4] is reported as 6 oocysts per mosquito.
With `CNCCCC1c2ccccc2C=Cc2ccccc21` [protryptiline hydrochloride] the oocyst formation ([2]; 10 mg/kg single dose i.p.) was “strong reduction in oocyst formation”.
With `CCN(CC)CCCC(C)Nc1c2ccc(Cl)cc2nc2ccc(OC)cc12` (stereo not shown) [quinacrine] the IC50 (P. falciparum lines; 72 h) was < 2 µM.
In the case of `CC(=O)O[C@H]1C(=O)[C@@]2(C)[C@H]([C@H](OC(=O)c3ccccc3)[C@]3(O)C[C@H](OC(=O)[C@H](O)[C@@H](NC(=O)c4ccccc4)c4ccccc4)C(C)=C1C3(C)C)[C@]1(OC(C)=O)CO[C@@H]1C[C@@H]2O` [taxol], the IC50 (P. falciparum lines; [3]) is reported as < 2 µM.
